Results on 27 molecules are retold here after US9765018B2, “IDO inhibitors” (BRISTOL-MYERS SQUIBB COMPANY, priority 2013, dated 2017).

A word on the IC50: it is the concentration needed to halve the response being measured.

The target in one experiment is T1, IDO (Homo sapiens (Human), UniProt P14902). The experiment in a line: Kynurenine assay in IFN-γ-stimulated Hela cells. In kind it is cell-based. The conditions noted are these: 20 h, read-out: Hela Kyurenine (IC50). Summed up: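 Kynurenine in supernatant is read at 490 nm after Ehrlich reagent (10 min RT), following TCA stop and 30 min at 50° C hydrolysis. Before that, Hela cells in phenol red-free RPMI/10% FBS were co-treated 20 h at 37° C with 100 ng/mL IFN-γ and compound (30 μM top, 3-fold series to 1.5 nM).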
T1 sequence (P14902 whole entry): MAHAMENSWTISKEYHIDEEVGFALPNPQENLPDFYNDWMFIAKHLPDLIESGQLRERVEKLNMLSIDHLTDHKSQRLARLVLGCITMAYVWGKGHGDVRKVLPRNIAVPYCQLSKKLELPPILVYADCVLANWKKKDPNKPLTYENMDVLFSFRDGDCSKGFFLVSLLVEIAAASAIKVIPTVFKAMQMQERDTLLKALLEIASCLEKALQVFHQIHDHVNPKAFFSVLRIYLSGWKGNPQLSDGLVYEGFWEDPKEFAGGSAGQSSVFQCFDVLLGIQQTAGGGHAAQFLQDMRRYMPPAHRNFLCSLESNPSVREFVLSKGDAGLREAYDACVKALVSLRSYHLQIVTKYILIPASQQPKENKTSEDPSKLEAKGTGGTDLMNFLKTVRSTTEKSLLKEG
As for `Cc1ccc(NC(=O)Nc2cc(-c3cccc(C(=O)O)c3)ccc2Oc2c(Cl)cccc2Cl)cc1` [Example 247, 4′-(2,6-dichlorophenoxy)-3′-(3-p-tolylureido) biphenyl-3-carboxylic acid], the IC50 worked out at 1340 nM.

Consider `Cc1ccc(NC(=O)Nc2cc(-c3cccc(C(=O)O)c3)ccc2Oc2ccc(Cl)cc2)cc1` [Example 248, 4′-(4-chlorophenoxy)-3′-(3-p-tolylureido) biphenyl-3-carboxylic acid], for which the IC50 amounted to 1490 nM. As to `Cc1cccc(NC(=O)Nc2cc(-c3cccc(C(=O)O)c3)ccc2Oc2ccc(Cl)cc2)c1` [Example 249, 4′-(4-chlorophenoxy)-3′-(3-m-tolylureido) biphenyl-3-carboxylic acid], the IC50 turned out to be 2550 nM. `O=C(Nc1cc(-c2cc(Cl)cc(C(=O)O)c2)ccc1Oc1ccccc1)Nc1ccccc1C(F)(F)F` [Example 250, 5-chloro-4′-phenoxy-3′-(3-(2-(trifluoromethyl)phenyl)ureido) biphenyl-3-carboxylic acid]: the IC50 was 1060 nM. Consider `Cc1cccc(NC(=O)Nc2cc(-c3cc(F)cc(C(=O)O)c3)ccc2Oc2ccccc2C(C)(C)C)c1` [Example 251, 4′-(2-tert-butylphenoxy)-5-fluoro-3′-(3-m-tolylureido) biphenyl-3-carboxylic acid], for which the half-maximal inhibitory concentration (IC50) was 740 nM. Still for that read-out and setting: as for `Cc1ccc(NC(=O)Nc2cc(-c3cc(F)cc(C(=O)O)c3)ccc2Oc2ccccc2C(C)(C)C)cc1` [Example 252, 4′-(2-tert-butylphenoxy)-5-fluoro-3′-(3-p-tolylureido) biphenyl-3-carboxylic acid], the figure is 660 nM; as for `CC(C)(C)c1ccccc1Oc1ccc(-c2cc(F)cc(C(=O)O)c2)cc1NC(=O)Nc1ccccc1Cl` [Example 253, 4′-(2-tert-butylphenoxy)-3′-(3-(2-chlorophenyl)ureido)-5-fluorobiphenyl-3-carboxylic acid], 1100 nM; as for `COc1ccc(-c2ccc(Oc3ccccc3C(C)(C)C)c(NC(=O)Nc3ccc(C)cc3)c2)cc1C(=O)O` [Example 255, 4′-(2-tert-butylphenoxy)-4-methoxy-3′-(3-p-tolylureido) biphenyl-3-carboxylic acid], 370 nM. With `Cc1ccc(NC(=O)Nc2cc(-c3ccc(C(=O)O)cc3)ccc2Oc2ccccc2C(C)(C)C)cc1` [Example 256, 4′-(2-tert-butylphenoxy)-3′-(3-p-tolylureido) biphenyl-4-carboxylic acid], the IC50 worked out at 310 nM. As to `COc1cc(-c2ccc(Oc3ccccc3C(C)(C)C)c(NC(=O)Nc3ccc(C)cc3)c2)ccc1C(=O)O` [Example 258, 4′-(2-tert-butylphenoxy)-3-methoxy-3′-(3-p-tolylureido) biphenyl-4-carboxylic acid], the IC50 was found to be 2250 nM. For `O=C(Nc1ccccc1Cl)Nc1cc(-c2cccc(C(=O)O)c2)ccc1Oc1ccccc1C(F)(F)F` [Example 259, 3′-(3-(2-chlorophenyl)ureido)-4'-(2-(trifluoromethyl)phenoxy) biphenyl-3-carboxylic acid], the 50% inhibitory concentration (IC50) was found to be 2210 nM.

As for `O=C(Nc1ccc(OC(F)(F)F)cc1)Nc1cc(-c2cc(Cl)cc(C(=O)O)c2)ccc1Oc1ccccc1Cl` [Example 260, 5-chloro-4′-(2-chlorophenoxy)-3′-(3-(4-(trifluoromethoxy)phenyl)ureido)biphenyl-3-carboxylic acid], the IC50 is 5590 nM. On to `CC(C)(C)c1ccccc1Oc1ccc(-c2cc(C(=O)O)ccc2F)cc1NC(=O)Nc1ccc(OC(F)(F)F)cc1` [Example 261, 4′-(2-tert-butylphenoxy)-6-fluoro-3′-(3-(4-(trifluoromethoxy)phenyl)ureido) biphenyl-3-carboxylic acid], for which the half-maximal inhibitory concentration (IC50) was determined as 420 nM. For the molecule `CC(C)(C)c1ccccc1Oc1ccc(-c2cc(Cl)cc(C(=O)O)c2)cc1NC(=O)Nc1ccc(OC(F)(F)F)cc1` [Example 262, 4′-(2-tert-butylphenoxy)-5-chloro-3′-(3-(4-(trifluoromethoxy)phenyl)ureido) biphenyl-3-carboxylic acid], the IC50 was 4560 nM. With `CC(C)(C)c1ccccc1Oc1ccc(-c2ccc(C(=O)O)cc2)cc1NC(=O)Nc1ccc(OC(F)(F)F)cc1` [Example 265, 4′-(2-tert-butylphenoxy)-3′-(3-(4-(trifluoromethoxy)phenyl)ureido)biphenyl-4-carboxylic acid], the IC50 is 3460 nM. Same read-out and setting: as for `COc1ccc(-c2cnc(Oc3ccccc3C(C)(C)C)c(NC(=O)Nc3ccc(C)cc3)c2)cc1C(=O)O` [Example 335], the figure is 340 nM; as for `Cc1ccc(NC(=O)Nc2cc(-c3ccc(C(=O)O)cc3)cnc2Oc2ccccc2)cc1` [Example 338], 87900 nM.

The target in the next experiment is T1, IDO. Description: LLE_IDO_ABS_DR (IDO assay, method not described).
Conditions: not given
Regarding `Cc1ccc(NC(=O)Nc2cc(-c3ccccc3-c3nn[nH]n3)ccc2OC(C(C)C)C(C)C)cc1` [Example 9, 1-(4-((2,4-Dimethylpentan-3-yl)oxy)-2′-(1H-tetrazol-5-yl)-[1,1′-biphenyl]-3-yl)-3-(p-tolyl)urea], the half-inhibitory concentration (IC50) worked out at 30 nM. For `Cc1ccc(NC(=O)Nc2cc(-c3ccccc3C(=O)O)ccc2OC(C(C)C)C(C)C)cc1` [Example 10, 4′-((2,4-Dimethylpentan-3-yl)oxy)-3′-(3-(p-tolyl)ureido)-[1,1′-biphenyl]-2-carboxylic acid], the IC50 worked out at 720 nM.

For the molecule `CC(C)C(Oc1ccc(-c2ccccc2-c2nnn[nH]2)cc1NC(=O)Nc1ccccc1F)C(C)C` [Example 11, 1-(4-((2,4-Dimethylpentan-3-yl)oxy)-2′-(1H-tetrazol-5-yl)-[1,1′-biphenyl]-3-yl)-3-(2-fluorophenyl)urea], the IC50 was found to be 160 nM. On the same count and under the same terms, as for `COc1ccc(-c2ccc(OC(C(C)C)C(C)C)c(NC(=O)Nc3ccccc3F)c2)cc1C(=O)O` [Example 12, 4′-((2,4-Dimethylpentan-3-yl)oxy)-3′-(3-(2-fluorophenyl)ureido)-4-methoxy-[1,1′-biphenyl]-3-carboxylic acid], the figure is 820 nM; as for `CCCC(CCC)Oc1ccc(-c2ccccc2-c2nn[nH]n2)cc1NC(=O)Nc1ccc(C)cc1` [Example 13, 1-(4-(Heptan-4-yloxy)-2′-(1H-tetrazol-5-yl)-[1,1′-biphenyl]-3-yl)-3-(p-tolyl)urea], 30 nM. Still for that read-out and setting: as for `CCCC(CCC)Oc1ccc(-c2ccccc2C(=O)O)cc1NC(=O)Nc1ccc(C)cc1` [Example 14, 4′-(Heptan-4-yloxy)-3′-(3-(p-tolyl)ureido)-[1,1′-biphenyl]-2-carboxylic acid], the figure is 600 nM; as for `CCCC(CCC)Oc1ccc(-c2cc(F)ccc2C(=O)O)cc1NC(=O)Nc1ccc(C)cc1` [Example 15, 5-Fluoro-4′-(heptan-4-yloxy)-3′-(3-(p-tolyl)ureido)-[1,1′-biphenyl]-2-carboxylic acid], 380 nM. On the same count and under the same terms, as for `CCCOc1c(CCC)cc(-c2ccccc2C(=O)O)cc1NC(=O)Nc1ccc(C)cc1` [Example 17, 4′-Propoxy-3′-propyl-5′-(3-(p-tolyl)ureido)-[1,1′-biphenyl]-2-carboxylic acid], the figure is 200 nM; as for `CCCOc1c(CCC)cc(-c2cc(F)ccc2C(=O)O)cc1NC(=O)Nc1ccc(C)cc1` [Example 18, 5-Fluoro-4′-propoxy-3′-propyl-5′-(3-(p-tolyl)ureido)-[1,1′-biphenyl]-2-carboxylic acid], 310 nM. As to `C/C=C/Cc1cc(-c2ccccc2C(=O)O)cc(NC(=O)Nc2ccc(C)cc2)c1OCCC` [Example 20, (E)-3′-(But-2-en-1-yl)-4′-propoxy-5′-(3-(p-tolyl)ureido)-[1,1′-biphenyl]-2-carboxylic acid], the IC50 was 170 nM.
